Measurements taken from PMC8383318, “Preclinical Pharmacokinetics, Tissue Distribution, and Primary Safety Evaluation of Indo5, a Novel Selective Inhibitor of c-Met and Trks” (Frontiers in Pharmacology, 2021).

Key:
[1] = Pharmacokinetic study in rat plasma (IV and oral), LC-MS/MS, non-compartmental analysis; type: in vivo, Wistar rats
Protocol: For intravenous (IV) treatment, Indo5 was dissolved in DMSO (solution, 1 mg/ml) and injected into the lateral tail vein of rats (1 mg/kg, n = 3). For intragastric treatment, Indo5 was dissolved in 5% CMC-Na (suspension, 20 mg/ml). The rats were orally administered with Indo5 (100 mg/kg, n = 3) using a 20-G gavage needle. All of the animals were given a standard diet 4 h after the dosing. Blood samples (approximately 400 μl) were collected from each rat and placed into heparinized tubes before the dosing, and at 5, 15, 30, 60, 120, 240, and 480 min after the dosing. Plasma (100 μl) was harvested by centrifuging blood samples at 3,600 g for 10 min at room temperature followed by immediate processing for the analyses.
Briefly, 400 μl acetonitrile was added to 100 μl rat plasma or tissue homogenate, vortexed for 30 s, and centrifuged at 10,000 g for 10 min at room temperature to precipitate proteins. Subsequently, the supernatant (40 μl) was introduced into the HPLC/MS system. Plasma or tissue concentrations of Indo5 were determined using HPLC-MS/MS validated for pharmacokinetics.
The plasma concentration–time data obtained after intravenous and intragastric administrations were subjected to non-compartmental analyses based on the statistical moment theory. Pharmacokinetic parameters were calculated using WinNorlin 5.2 (Certara; www.certara.com/). These parameters included the maximum plasma concentration (Cmax), time to reach Cmax (Tmax), elimination half-life (t1/2), area under the plasma concentration–time curve from time zero to infinity (AUC0–∞), mean residence time (MRT), and clearance (CL). The absolute oral bioavailability was calculated by dividing the AUCtot obtained from oral administration by the AUCtot obtained from IV administration, and the calculation was adjusted using the doses that had been administered via oral and IV routes.

TrkA = tested on: TrkA; parameters: method as in Luo et al., 2019; details: ref Luo et al., 2019; read-out: half-maximal inhibitory concentration, TrkA kinase activity; cited from earlier work
TrkB = tested on: TrkB; parameters: method as in Luo et al., 2019; details: ref Luo et al., 2019; read-out: half-maximal inhibitory concentration, TrkB kinase activity; cited from earlier work
HCC cells = tested on: HCC cells; parameters: method as in Luo et al., 2019; details: ref Luo et al., 2019, cited from earlier work
[2] = Tissue-distribution study in rats; type: in vivo, Wistar rats
[3] = parameters: species or system mice; details: mouse, in vivo, po, 60 mg/kg
[4] = oral (p.o.) 100 mg/kg in CMC-Na suspension, n = 3

With `Cc1ccccc1NS(=O)(=O)c1ccc2c(c1)C(=Cc1nc3ccccc3[nH]1)C(=O)N2` [Indo5, 3-(1H-benzimidazol-2-methylene)-5-(2-methylphenylaminosulfo)-2-indolone] the Tmax ([1]; IV 1 mg/kg) was 1 min, the AUC0-t ([1]; IV 1 mg/kg in DMSO, n = 3) was 158.6 ± 27.9 ng·h/mL and the “AUC0-∞” value ([1]; IV 1 mg/kg in DMSO, n = 3) was 163.4 ± 28.3 ng·h/mL. The CL ([1]; IV 1 mg/kg in DMSO, n = 3) was 6,121.6 ± 1,124.8 ml/h/kg, the Cmax ([1]; IV 1 mg/kg in DMSO, n = 3) was 1,565.3 ± 286.2 ng/ml and the MRT0-t ([1]; IV 1 mg/kg in DMSO, n = 3) was 10.8 ± 2.4 min. For the same compound, the “MRT0-∞” value ([1]; IV 1 mg/kg in DMSO, n = 3) was 15.6 ± 3.6 min, the Tmax ([1]; IV 1 mg/kg in DMSO, n = 3) was 1 min and the t1/2 ([1]; IV 1 mg/kg in DMSO, n = 3) was 37.8 ± 6.6 min. The AUC0-t [1, 4] was 251.5 ± 43.5 ng·h/mL, the “AUC0-∞” value [1, 4] was 255.7 ± 44.9 ng·h/mL and the CL [1, 4] was 391056.4 ± 77,945.8 ml/h/kg. For the same compound, the Cmax [1, 4] was 54.7 ± 10.4 ng/mL, the MRT0-t [1, 4] was 172 ± 36.6 min and the “MRT0-∞” value [1, 4] was 179 ± 37.8 min. The Tmax [1, 4] was 120 ± 28.8 min, the Vd [1, 4] was 706.349 ± 106.9412 L/kg and the t1/2 [1, 4] was 75 ± 14.4 min. The IC50 (TrkA) was 28 nM, the IC50 (TrkB) was 25 nM and the “survival of mice with hepatic orthotopic tumors” value (HCC cells; hepatic orthotopic tumors) was “increases the survival”. For the same compound, the “growth of HCC cells in xenograft-transplanted mice” value (HCC cells; xenograft-transplanted mice) was “significantly decreases the growth of HCC cells”, the “crossing of blood–brain and blood–testes barriers” value [2] was “could not cross the blood–brain or blood–testes barriers” and the “histological analysis of liver tissue” value [3] was “no pathological changes”. For the same compound, the “number and frequencies of immune cells in the liver (flow cytometry)” value [3] was “did not affect the number or frequencies of immune cells in the liver”.
